Measurements reported in US5225425A, “Bis-aryl amide antagonists of platelet activating factor” (American Cyanamid Company, priority 1992, dated 1993).
“And” between values parts separate entries of the source, which are not always exact repeats. Equal entries are not always repeated.

Key:
PAF receptor = target: T1, PAF receptor (Oryctolagus cuniculus, UniProt G1TEI7); assay: Inhibition of PAF induced platelet aggregation in rabbit platelet rich plasma; assay type: cell-based, rabbit (New Zealand White)
T1 construct: centrifuged at 800 rpm for 10-15 minutes at room temperature to recover the platelet rich plasma (PRP); from tissue; host or cells: platelets in platelet rich plasma from blood of male New Zealand White rabbits
T1 sequence (G1TEI7 1-342): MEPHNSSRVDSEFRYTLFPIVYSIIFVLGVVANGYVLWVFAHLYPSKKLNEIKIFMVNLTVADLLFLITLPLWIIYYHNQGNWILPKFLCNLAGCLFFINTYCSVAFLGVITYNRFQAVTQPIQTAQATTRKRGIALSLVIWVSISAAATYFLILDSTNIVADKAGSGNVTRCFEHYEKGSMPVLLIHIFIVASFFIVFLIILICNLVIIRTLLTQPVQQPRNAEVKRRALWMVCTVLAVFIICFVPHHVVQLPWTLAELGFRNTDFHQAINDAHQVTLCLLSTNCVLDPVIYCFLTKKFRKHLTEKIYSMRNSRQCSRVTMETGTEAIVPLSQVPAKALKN
Procedure: Test compounds are evaluated as PAF receptor antagonists in vitro by measuring inhibition of PAF (platelet activating factor) induced platelet aggregation. Platelet aggregation is measured by a modification of the method described in […], et. al., J. Med. Chem., 27 1174, 1984. […] All syringes and pipets are plastic. The blood is gently mixed and immediately centrifuged at 800 rpm for 10-15 minutes at room temperature to recover the platelet rich plasma (PRP). Platelet poor plasma (PPP) is prepared by centrifuging PRP at 2800 rpm for 10 minutes at room temperature. Dilutions (1:3000) of PRP in Isotone diluent are made and platelet counts are determined on a Coulter Thrombocounter which is standardized with platelet reference standards (Interscience Platelet Control, Portland, Oreg.). PRP platelet counts are adjusted to approximately 400,000-500,000 platelets/μl by the addition of PPP. L-PAF (Platelet Activating Factor) is obtained from Calbiochem. […] All solutions are made up in plastic tubes, stored on ice and protected from heat and light. Solutions are prepared fresh or frozen at -20° C. and used within 48 hours. Incubation mixtures consisted of 400 μl PRP, 50 μl of saline diluent or test compound and 50 μl of PAF agonist. More specifically, 400μl of PRP is stabilized in a cuvette for 1-2 minutes at 37° C. in the aggregometer to achieve a stable baseline, then 50 μl of saline or test compound is added and incubated for 5 minutes before addition of the challenge concentration of pAF. A submaximal concentration is determined from the dose response curve for PAF for that experiment. In general, the challenge concentration is 5E-8 or 1E-7M. Aggregation is monitored for 5 minutes. Samples containing test compound or diluent are run simultaneously for comparison. Test compounds are initially evaluated at a screening concentration of 1E-5M. […] The recording equipment consists of a dual channel Chronolog aggregometer connected to a dual channel 10MV full scale deflection Omniscribe chart recorder (Houston Instruments). The chart recorder is calibrated daily with the use of a suspension of Bio-Rad latex beads (S-X 12 400 mesh) which has a density slightly greater than rabbit PRP. […] These limits defined a full scale deflection. The aggregation traces are analyzed by a digitizing method (C. Kohler and B. Zoltan, J. Pharm. Methods, 12, 113, 1984) with x, y coordinate data stored in a computer file. A suitable program computes parameters of interest such as the magnitude of aggregation.

PAF = PAF induced lethality in mice; assay type: in vivo; details: PAF 150 μg/kg IV
Procedure: PAF given I.V. to mice causes an immediate hypotensive shock leading to death in 1 hour or less. […] Animals alive after 2 hours are counted and the activity of test compounds expressed as % survival corrected for any control (saline treated) animals which survived the PAF challenge.

LPS endotoxin [1] = assay: High dose acute mouse endotoxemia (LPS endotoxin induced mortality); assay type: in vivo, Male Balb/c mice; details: for % Survival / survivors/total: i.p., LPS 50 mg/kg ip
Excerpt: (§1) Endotoxin administration produces a shock-like state characterized by vascular permeability changes, hypotension, neutropenia, thrombocytopenia,multiple organ damage and death. The major mediators released after endotoxin injection are TNF (tumor necrosis factor), PAF (platelet activating factor) and […] (interleukin I). PAF administration mimics the signs and symptoms of endotoxin induced shock and death and endotoxin also induces the release of PAF. Therefore, the effects of endotoxin should be blocked with a PAF antagonist.
(§2) Male Balb/c mice (approximately 20 g) are obtained from Charles River Laboratories and used after a one-two week acclimation period. Animals are given (ip) test compound dissolved in saline or water (sonicated and heated) at different time intervals prior to and after the ip injection of endotoxin (usually 2 hours before LPS endotoxin, and 3-4 hours after). Sigma E. Coli endotoxin, 0111:B4, phenol extraction, catalog #L2630 is used for these studies.
This LD value is approximately 50 mg/kg i.p. The number of survivors in each group (control or treated with test compound) is recorded after 24, 48 or 72 hours and the treated groups (receiving test compound and endotoxin) are compared with the untreated, control group (receiving endotoxin only) or saline control (receiving saline and endotoxin).
LPS Endotoxin challenge = 50 mg/kg ip
Test cpd given 2 hrs. before and 3-4 hrs. after LPS challenge on day 0,
followed by BID dosing for 3-4 days.

LPS endotoxin [2] = assay: Low dose, chronic mouse endotoxemia (LPS endotoxin); assay type: in vivo, Male Balb/c mice; details: dose 10 mg/kg i.p.; day 6; LPS 20 mg/kg i.p.
Excerpt: as §1, §2
For the chronic endotoxin shock model, a lower dose of endotoxin is administered (generally 15 to 20 mg/kg i.p). This dose gives an LD80 in two to four days following LPS administration. Test compounds are given 2 hours before LPS and 3-4 hours after on the first day, followed by 3 or 4 consecutive days of BID dosing. The number of survivors in each group is recorded each day for a period of 5 to 7 days.
All mice challenged with LPS endotoxin = 20 mg/kg i.p.
CL test cpd given 2 hours before and 3-4 hours after LPS challenge on day
0, followed by BID dosing for 3-4 days.

CCCCCCCCCCCCCCOc1cccc(CC(=O)Nc2cccc(C[n+]3csc(C)c3)c2)c1.[Br-] [5-methyl-3-[[3-[[[3-(tetradecyloxy)phenyl]acetyl]amino]phenyl]methyl]thiazolium bromide]
IC50 (PAF receptor; PAF challenge 5.0000E-08 M): 0.49 µM and 1.27 µM
IC50 (PAF receptor; PAF challenge 5E-9 M): 1.06 µM
inhibition at 10 µM (PAF receptor; dose .00001 M, PAF challenge 5E-9 M, read-out: % INH of PAF induced platelet aggregation): 100%
% Survival (PAF; 5 mg/kg P.O.): 40%
% Survival (PAF; 20 mg/kg P.O.): 59%
% Survival (LPS endotoxin [1]; day 0): 100%
survivors/total (LPS endotoxin [1]; day 0): 30/30
% Survival (LPS endotoxin [1]; day 1): 40%
survivors/total (LPS endotoxin [1]; day 1): 12/30
% Survival (LPS endotoxin [1]; day 2): 13%
survivors/total (LPS endotoxin [1]; day 2): 4/30
% Survival (LPS endotoxin [1]; day 3): 10%
survivors/total (LPS endotoxin [1]; day 3): 3/30
% Survival (LPS endotoxin [1]; day 4): 10%
survivors/total (LPS endotoxin [1]; day 4): 3/30
activity when administered ip prior to a lethal ip injection of endotoxin (LPS endotoxin [1]; ip, in words): some activity
% Survival (LPS endotoxin [2]): 43%
